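96-well plates; 48 h exposure; 5 concentrations. Endpoints by linear interpolation between flanking doses. Not reached: highest tested concentration assigned. At the GI50, growth is halved.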 The source made the active and inactive calls. No stated cut-off is given here; in the data, active = GI50 up to about 1.1 µM and inactive = higher.
Assays:
Test in all cases: DTP human tumour cell line panel, 48 h
MDA-MB-435 = tested on: MDA-MB-435
Malme-3M = tested on: Malme-3M
HOP-62 = tested on: HOP-62
HL-60 = tested on: HL-60
CCRF-CEM = tested on: CCRF-CEM
SR = tested on: SR
M14 = tested on: M14
OVCAR-3 = tested on: OVCAR-3
HT-29 = tested on: HT-29
Hs-578T = tested on: Hs-578T
RPMI-8226 = tested on: RPMI-8226
HCT-15 = tested on: HCT-15
UACC-62 = tested on: UACC-62
SN12C = tested on: SN12C
SF-539 = tested on: SF-539
A549 = tested on: A549
EKVX = tested on: EKVX
U-251 = tested on: U-251
SK-MEL-5 = tested on: SK-MEL-5
NCI/ADR-RES = tested on: NCI/ADR-RES

| Compound | GI50 (MDA-MB-435) | GI50 (Malme-3M) | GI50 (HOP-62) | GI50 (HL-60) | GI50 (CCRF-CEM) | GI50 (SR) | GI50 (M14) | GI50 (OVCAR-3) | GI50 (HT-29) | GI50 (Hs-578T) | GI50 (RPMI-8226) | GI50 (HCT-15) | GI50 (UACC-62) | GI50 (SN12C) | GI50 (SF-539) | GI50 (A549) | GI50 (EKVX) | GI50 (U-251) | GI50 (SK-MEL-5) | GI50 (NCI/ADR-RES) |
| --- | --- | --- | --- | --- | --- | --- | --- | --- | --- | --- | --- | --- | --- | --- | --- | --- | --- | --- | --- | --- |
| O=C1NC(N2CCOCC2)=N/C1=C\c1ccccc1 | > 100 µM (inactive) | > 100 µM (inactive) | > 100 µM (inactive) | > 100 µM (inactive) | > 100 µM (inactive) | > 100 µM (inactive) | > 100 µM (inactive) | > 100 µM (inactive) | > 100 µM (inactive) | > 100 µM (inactive) | > 100 µM (inactive) | > 100 µM | > 100 µM (inactive) | > 100 µM (inactive) | > 100 µM (inactive) | > 100 µM (inactive) | > 100 µM (inactive) | > 100 µM (inactive) | > 100 µM (inactive) | > 100 µM (inactive) |
| COC(=O)/C=C(\C(=O)OC)C1C(=O)Oc2c(C)c(=O)c3ccccc3n21 (stereo not given) | > 100 µM (inactive) | > 100 µM (inactive) | > 100 µM (inactive) | > 100 µM (inactive) | > 100 µM (inactive) | > 100 µM (inactive) | > 100 µM (inactive) | > 100 µM (inactive) | > 100 µM (inactive) | > 100 µM (inactive) | > 100 µM (inactive) | > 100 µM | > 100 µM (inactive) | > 100 µM (inactive) | > 100 µM (inactive) | > 100 µM (inactive) | > 100 µM (inactive) | > 100 µM (inactive) | > 100 µM (inactive) | > 100 µM (inactive) |
| CC1(C)CCC(C)(C)c2cc(NC(=O)c3ccc(C(=O)O)cc3)ccc21 [TAMIBAROTENE] | 25.9 µM (inactive) | 17.9 µM (inactive) | 23.6 µM (inactive) | 44.5 µM (inactive) | 16.8 µM (inactive) | > 69.8 µM (inactive) | 26.5 µM (inactive) | 22.4 µM (inactive) | 25.8 µM (inactive) | 24.5 µM (inactive) | 20.4 µM (inactive) | 26.9 µM | 16.5 µM (inactive) | 25.5 µM (inactive) | 17.7 µM (inactive) | 27 µM (inactive) | 37.9 µM (inactive) | 24.7 µM (inactive) | 29.5 µM (inactive) | 31.9 µM (inactive) |

From ChEMBL document CHEMBL1201862, “PubChem BioAssay data set” (2004)
